# Experimental data from PubChem BioAssay (NCI).
#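 Growth conditions: 96-well plates. Treatment: test compound, 48 hours, 5 concentrations. Analysis: linear interpolation between bracketing concentrations; unreached endpoints set to highest concentration. The concentration for full growth arrest is given as TGI.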
# Columns and labels:
# Assay in all cases: DTP human tumour cell line panel, 48 h
# [1] = tested on: M14 melanoma
# [2] = tested on: NCI-H226 lung
# [3] = tested on: PC-3 prostate
# [4] = tested on: 786-0 renal
# [5] = tested on: SNB-19 CNS
# [6] = tested on: EKVX NSCLC
# [7] = tested on: UACC-62 melanoma
# [8] = tested on: RXF 393 renal
# [9] = tested on: OVCAR-3 ovarian
# [10] = tested on: IGROV1 ovarian
Compound,TGI [1] [µM],TGI [2] [µM],TGI [3] [µM],TGI [4] [µM],TGI [5] [µM],TGI [6] [µM],TGI [7] [µM],TGI [8] [µM],TGI [9] [µM],TGI [10] [µM]
Cc1nc(-c2ccc([N+](=O)[O-])cc2)cn2c1nc1ccccc12,> 100,> 100,> 100,> 100,> 100,> 100,53.8,> 100,> 100,> 100
COCOC1/C=C/CCCCC2=C(C)C=C(C1)O2 (stereo not drawn),> 100,> 100,> 100,> 100,> 100,> 100,> 100,> 100,> 100,> 100
COc1cc(/C=C2/C(=O)N(C(=O)c3ccccc3O)N=C2C)cc(OC)c1OC,> 100,> 100,> 100,> 100,> 100,> 100,16.9,8.74,18.7,4.71
Cc1c(-c2nc3ccccc3[nH]2)c(=O)n(-c2ccccc2)n1C,> 100,> 100,> 100,> 100,> 100,> 100,> 100,> 100,> 100,> 100
O=C(/C=C/c1ccc(O)c([N+](=O)[O-])c1)CC(=O)/C=C/c1ccc(O)c([N+](=O)[O-])c1,> 100,> 100,> 100,> 100,> 100,> 100,> 100,> 100,> 100,76.4
Cc1ccc(-c2c(C#N)c(-c3ccccc3)n(NS(=O)(=O)c3ccccc3)c(=O)c2C#N)cc1,> 100,> 100,> 100,> 100,> 100,> 100,> 100,> 100,–,> 100
NCC1CCN(c2nc3ccccc3c3c2CCCC3)CC1,3.71,34.1,22.5,12.3,24.3,27.7,4.96,11.7,24.9,24.5
CN(C)CCCOC(=O)C(c1ccccc1)C1(O)CCSCC1 (stereo not drawn),> 100,> 100,> 100,> 100,78.6,> 100,> 100,> 100,> 100,> 100
COc1cccc(-c2cc(=O)c3ccccc3o2)c1N,> 100,> 100,> 100,> 100,> 100,> 100,> 100,> 100,> 100,> 100
CN1C(=O)N(c2ccccc2)C2(CCN(CC3COc4ccccc4O3)CC2)C1=O (stereo not drawn),> 100,> 100,> 100,> 100,56.6,> 100,> 100,> 100,89.2,> 100
COc1ccc(C2CC(c3c(O)ccc4ccccc34)=NN2c2ccc([N+](=O)[O-])cc2[N+](=O)[O-])cc1OC (stereo not drawn),> 100,48.9,> 70.3,> 100,> 60.3,> 67,> 100,> 71.1,58.3,> 71.2
CCOP(=O)(OCC)/C(C#N)=C/c1cnc(-c2ccccc2)[nH]1,> 100,> 100,> 100,> 100,> 100,> 100,> 100,> 100,> 100,> 100
C=C(C)C12CC(COC(=O)c3ccccc3)C34OC5(OC1C3C1OC1(CO)C(O)C1(O)C(OC(=O)c3ccccc3)C(C)C(C(C)CCCCCCC5O)C14)O2 (stereo not drawn),> 100,> 100,> 100,> 100,> 100,> 100,> 100,> 100,> 100,> 100
COc1ccc(-c2cc(-c3ccco3)c(C#N)c(=S)n2C2OC(COC(C)=O)C(OC(C)=O)C(OC(C)=O)C2OC(C)=O)cc1 (stereo not drawn),17.7,16.5,16.5,10.6,19.1,32.2,14.4,21.3,19.7,29.5
O=C(O)CSc1nnc(COc2ccc(Cl)cc2)n1-c1ccccc1,> 100,> 100,> 100,> 100,> 100,> 100,> 100,> 100,> 100,> 100
CN(C)/N=N/c1nc2c(c(=O)n(C)c(=O)n2C)n1C,> 100,> 100,> 100,> 100,> 100,> 100,> 100,> 100,> 100,> 100
O=C1CCC[C@@H]2NC[C@@H](c3ccc4c(c3)OCO4)[C@H]12,> 25,> 25,> 25,> 25,> 25,> 25,> 25,> 25,–,> 25
